Calls of active or inactive are those of the source. The rule behind the calls is not given here.
Columns and labels:
Mus musculus [1] = experiment: Antinociceptive activity in Swiss mouse assessed inhibition of formaldehyde-induced paw licking at 0.31 mmol/kg, ip administered 30 mins prior to formaldehyde-challenge measured from 15 to 30 mins; assay type: functional, organism-based
[2] = n-Octanol-water distribution coefficient, log K of the compound by shake flask method; assay type: physicochemical; details: read-out: log KOW
Mus musculus [3] = experiment: Antinociceptive activity in Swiss mouse assessed as inhibition of zymosan A-induced writhing response at 0.31 mmol/kg, ip administered 30 mins prior to zymosan A-challenge; assay type: functional, organism-based
Mus musculus [4] = experiment: Antinociceptive activity in Swiss mouse assessed as inhibition of zymosan A-induced writhing response at 0.62 mmol/kg, ip administered 30 mins prior to zymosan A-challenge; assay type: functional, organism-based
Mus musculus [5] = experiment: Antinociceptive activity in Swiss mouse assessed inhibition of formaldehyde-induced paw licking at 0.31 mmol/kg, ip administered 30 mins prior to formaldehyde-challenge measured up to 5 mins; assay type: functional, organism-based
Rattus norvegicus [6] = experiment: Antiinflammatory activity in Wistar rat assessed as inhibition of carrageenan-induced paw edema at 0.31 mmol/kg, ip administered 30 mins prior to carrageenan-challenge measured up to 6 hrs; assay type: functional, organism-based
Rattus norvegicus [7] = experiment: Antiinflammatory activity in Wistar rat assessed as inhibition of carrageenan-induced paw edema at 0.62 mmol/kg, ip administered 30 mins prior to carrageenan-challenge measured up to 6 hrs; assay type: functional, organism-based
Mus musculus [8] = experiment: Antinociceptive activity in ip dosed Swiss mouse assessed as inhibition of zymosan A-induced writhing response administered 30 mins prior to zymosan A-challenge; assay type: functional
Mus musculus [9] = experiment: Antinociceptive activity in Swiss mouse assessed inhibition of formaldehyde-induced paw licking at 0.62 mmol/kg, ip administered 30 mins prior to formaldehyde-challenge measured from 15 to 30 mins; assay type: functional, organism-based
Rattus norvegicus [10] = experiment: Antiinflammatory activity in Wistar rat assessed as inhibition of carrageenan-induced paw edema at 0.31 mmol/kg, ip administered 30 mins prior to carrageenan-challenge measured at 2 hrs; assay type: functional, organism-based
Rattus norvegicus [11] = experiment: Antiinflammatory activity in Wistar rat assessed as inhibition of carrageenan-induced paw edema at 0.62 mmol/kg, ip administered 30 mins prior to carrageenan-challenge measured at 2 hrs; assay type: functional, organism-based
Mus musculus [12] = experiment: Neurotoxicity in Swiss mouse assessed as motor coordination by measuring change in time spent on rotating rod at 0.62 mmol/kg, ip administered 30 mins prior to testing; assay type: toxicity, organism-based; details: in vivo, 0.5 h
Mus musculus [13] = experiment: Antinociceptive activity in Swiss mouse assessed inhibition of formaldehyde-induced paw licking at 0.62 mmol/kg, ip administered 30 mins prior to formaldehyde-challenge measured up to 5 mins; assay type: functional, organism-based
Mus musculus [14] = experiment: Antinociceptive activity in Swiss mouse assessed as inhibition of zymosan A-induced writhing response at 0.16 mmol/kg, ip administered 30 mins prior to zymosan A-challenge; assay type: functional, organism-based

Row | logP [2] | SMILES | inhibition (Mus musculus [1]) | inhibition (Mus musculus [3]) | inhibition (Mus musculus [4]) | inhibition (Mus musculus [5]) | inhibition (Rattus norvegicus [6]) | inhibition (Rattus norvegicus [7]) | also measured
1 | 0.43 | NC(=O)N/N=C/c1cccc(O)c1 |  | inactive | inactive |  |  |  | 
2 | 0.85 | NC(=O)N/N=C/c1ccccc1O |  | Active | Active |  | inactive | inactive | MED (Mus musculus [8]): 0.16 mmol/kg; inhibition (Mus musculus [9]): Active; inhibition (Rattus norvegicus [10]): Active; inhibition (Rattus norvegicus [11]): Active; Activity (Mus musculus [12]): Non-toxic; inhibition (Mus musculus [13]): inactive
3 | 0.31 | NC(=O)N/N=C/c1ccc(O)cc1 |  | inactive | inactive |  |  |  | 

Further lines, the compound ahead of its results:

Row | SMILES | logP [2] | inhibition (Mus musculus [1]) | inhibition (Mus musculus [3]) | inhibition (Mus musculus [4]) | inhibition (Mus musculus [5]) | inhibition (Rattus norvegicus [6]) | inhibition (Rattus norvegicus [7]) | also measured
4 | O=Cc1ccccc1 |  | inactive |  |  |  |  |  | 
5 | NNC(N)=O |  | Active |  |  | inactive | Active | Active | 
6 | NC(=O)N/N=C/c1ccccc1 | 0.91 | Active |  |  | Active | inactive | inactive | inhibition (Mus musculus [14]): inactive

Source: ChEMBL document CHEMBL1955759, “Influence of susceptibility to hydrolysis and hydrophobicity of arylsemicarbazones on their anti-nociceptive and anti-inflammatory activities” (Eur J Med Chem, 2012)
